Assay results taken from patent US5202315A, “Cephalosporin compounds” (Lucky, Ltd., priority 1989, dated 1993).
Values after ≈ are worked out from the molar mass of the structure shown. Like-named read-outs stand apart in the source and are kept apart here.

Experiments:
[1] = In-vivo absorbency (plasma concentrations & pharmacokinetic parameters); design: species or system SD rat (male); conditions: plasma, SD male rat, iv 20 mg/kg, read-out: Plasma Conc.
Pseudomonas aeruginosa = experiment: Antibacterial activity against clinically isolated strains, MIC; format: cell-based
[2] = tested on: Enterobacter cloacae ATCC 27508; experiment: Antibacterial activity, MIC; format: cell-based; conditions: ATCC27508, ATCC 27508, agar two-fold dilution, 37° C., 20 hours, read-out: MIC
In short: (§1)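 Values reflect agar dilution testing: Mueller-Hinton medium, two-fold compound series, 2 μl inoculum of 10^7 CFU/ml, 20 h incubation at 37 °C.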

[3] = tested on: Escherichia coli ATCC 10536; experiment: Antibacterial activity, MIC; format: cell-based; conditions: ATCC10536, agar two-fold dilution, 37° C., 20 hours
In short: as §1

[4] = tested on: Bacillus megaterium ATCC 9885; experiment: Antibacterial activity, MIC; format: cell-based; conditions: Priestia megaterium, ATCC9885; ATCC 9885; agar two-fold dilution, 37° C., 20 hours; read-out: MIC
In short: as §1

[5] = tested on: Salmonella typhimurium ATCC 14028; experiment: Antibacterial activity, MIC; format: cell-based; conditions: Salmonella enterica; ATCC 14028; agar two-fold dilution, 37° C., 20 hours; read-out: MIC
In short: as §1

[6] = tested on: Citrobacter freundii ATCC 8090; experiment: Antibacterial activity, MIC; format: cell-based; conditions: ATCC8090, ATCC 8090, agar two-fold dilution, 37° C., 20 hours, read-out: MIC
In short: as §1

[7] = tested on: Morganella morganii ATCC 8076h; experiment: Antibacterial activity, MIC; format: cell-based; conditions: ATCC8076H, agar two-fold dilution, 37° C., 20 hours
In short: as §1

[8] = tested on: Proteus mirabilis ATCC 25933; experiment: Antibacterial activity, MIC; format: cell-based; conditions: ATCC25933, ATCC 25933, agar two-fold dilution, 37° C., 20 hours, read-out: MIC
In short: as §1

[9] = tested on: Pseudomonas aeruginosa ATCC 10145; experiment: Antibacterial activity, MIC; format: cell-based; conditions: ATCC10145, ATCC 10145, agar two-fold dilution, 37° C., 20 hours, read-out: MIC
In short: as §1

[10] = tested on: Serratia marcescens ATCC 27117; experiment: Antibacterial activity, MIC; format: cell-based; conditions: ATCC27117, ATCC 27117, agar two-fold dilution, 37° C., 20 hours, read-out: MIC
In short: as §1

[11] = tested on: Staphylococcus aureus ATCC 6538p; experiment: Antibacterial activity, MIC; format: cell-based; conditions: ATCC6538P, ATCC 6538p, agar two-fold dilution, 37° C., 20 hours, read-out: MIC
In short: as §1

[12] = tested on: Acinetobacter calcoaceticus ATCC 15473; experiment: Antibacterial activity, MIC; format: cell-based; conditions: ATCC15473, ATCC 15473, agar two-fold dilution, 37° C., 20 hours, read-out: MIC
In short: as §1

[13] = tested on: Staphylococcus aureus ATCC 10537; experiment: Antibacterial activity, MIC; format: cell-based; conditions: ATCC10537, ATCC 10537, agar two-fold dilution, 37° C., 20 hours, read-out: MIC
In short: as §1

[14] = tested on: Klebsiella pneumoniae ATCC 10031; experiment: Antibacterial activity, MIC; format: cell-based; conditions: ATCC10031, ATCC 10031, agar two-fold dilution, 37° C., 20 hours, read-out: MIC
In short: as §1

[15] = tested on: Bacillus cereus ATCC 11778; experiment: Antibacterial activity, MIC; format: cell-based; conditions: ATCC11778, ATCC 11778, agar two-fold dilution, 37° C., 20 hours, read-out: MIC
In short: as §1

[16] = tested on: Enterobacter aerogenes ATCC 29751; experiment: Antibacterial activity, MIC; format: cell-based; conditions: Klebsiella aerogenes, ATCC29751; ATCC 29751; agar two-fold dilution, 37° C., 20 hours; read-out: MIC
In short: as §1

[17] = tested on: Pseudomonas aeruginosa ATCC 25619; experiment: Antibacterial activity, MIC; format: cell-based; conditions: ATCC25619, ATCC 25619, agar two-fold dilution, 37° C., 20 hours, read-out: MIC
In short: as §1

[18] = tested on: Escherichia coli ATCC 25922; experiment: Antibacterial activity, MIC; format: cell-based; conditions: ATCC25922, agar two-fold dilution, 37° C., 20 hours
In short: as §1

[19] = tested on: Pseudomonas aeruginosa ATCC 27853; experiment: Antibacterial activity, MIC; format: cell-based; conditions: ATCC27853, ATCC 27853, agar two-fold dilution, 37° C., 20 hours, read-out: MIC
In short: as §1

[20] = tested on: Proteus vulgaris ATCC 6059; experiment: Antibacterial activity, MIC; format: cell-based; conditions: ATCC6059, ATCC 6059, agar two-fold dilution, 37° C., 20 hours, read-out: MIC
In short: as §1

[21] = tested on: Providencia rettgeri ATCC 9250; experiment: Antibacterial activity, MIC; format: cell-based; conditions: ATCC9250, agar two-fold dilution, 37° C., 20 hours
In short: as §1

[22] = tested on: Staphylococcus epidermidis ATCC 12228; experiment: Antibacterial activity, MIC; format: cell-based; conditions: ATCC12228, ATCC 12228, agar two-fold dilution, 37° C., 20 hours, read-out: MIC
In short: as §1

[23] = tested on: Shigella flexneri ATCC 11836; experiment: Antibacterial activity, MIC; format: cell-based; conditions: ATCC11836, agar two-fold dilution, 37° C., 20 hours
In short: as §1

[24] = tested on: Shigella sonnei ATCC 11060; experiment: Antibacterial activity, MIC; format: cell-based; conditions: ATCC11060, ATCC 11060, agar two-fold dilution, 37° C., 20 hours, read-out: MIC
In short: as §1

[25] = tested on: Micrococcus luteus ATCC 9341; experiment: Antibacterial activity, MIC; format: cell-based; conditions: ATCC9341, ATCC 9341, agar two-fold dilution, 37° C., 20 hours, read-out: MIC
In short: as §1

[26] = tested on: Staphylococcus aureus methicillin resistant; experiment: Antibacterial activity against clinically isolated strains, MIC; format: cell-based; conditions: methicillin resistant, 7 clinical isolates, broth microdilution test; for MIC90: read-out: MIC 90%
[27] = 54 clinical isolates, broth microdilution test

Structure (SMILES) | concentration at 1 min [1] [µg/mL] | concentration at 2.5 min [1] [µg/mL] | concentration at 5 min [1] [µg/mL] | concentration at 10 min [1] [µg/mL] | concentration at 20 min [1] [ng/mL] | concentration at 40 min [1] [ng/mL] | MIC50 (Pseudomonas aeruginosa; [27]) [µg/mL] | MIC [2] [µg/mL] | MIC [3] [µg/mL] | MIC [4] [µg/mL] | MIC [5] [µg/mL] | MIC [6] [µg/mL] | MIC [7] [ng/mL] | MIC [8] [µg/mL] | MIC [9] [µg/mL] | MIC [10] [µg/mL] | MIC [11] [µg/mL] | MIC [12] [µg/mL] | MIC [13] [µg/mL] | MIC [14] [µg/mL] | further results
CCO/N=C(\C(=O)NC1C(=O)N2C(C(=O)[O-])=C(CSc3nc(N)cc(N)[n+]3N)CSC12)c1csc(N)n1 (stereo not shown) [Compound I-16] | 149 | 106 | 79 | 52 | 32000 | 13000 | 4 (≈ 7.06 µM) | 0.016 (≈ 0.0282 µM) | 0.063 (≈ 0.111 µM) | 0.063 (≈ 0.111 µM) | 0.25 (≈ 0.441 µM) | 0.063 (≈ 0.111 µM) | ≤ 8 | 0.13 (≈ 0.229 µM) | 4 (≈ 7.06 µM) | 0.13 (≈ 0.229 µM) | 0.25 (≈ 0.441 µM) | 4 (≈ 7.06 µM) | 0.25 (≈ 0.441 µM) | ≤ 0.008 | MIC90 (Pseudomonas aeruginosa): 16 µg/mL (≈ 28.2 µM); MIC [15]: 4 µg/mL (≈ 7.06 µM); MIC [16]: 0.25 µg/mL (≈ 0.441 µM); MIC [17]: 0.5 µg/mL (≈ 0.882 µM); MIC [18]: 0.063 µg/mL (≈ 0.111 µM); MIC [19]: 2 µg/mL (≈ 3.53 µM); MIC [20]: 0.13 µg/mL (≈ 0.229 µM); MIC [21]: ≤ 8 ng/mL; MIC [22]: 0.063 µg/mL (≈ 0.111 µM); MIC [23]: 0.016 µg/mL (≈ 0.0282 µM); MIC [24]: 0.063 µg/mL (≈ 0.111 µM); MIC [25]: 0.016 µg/mL (≈ 0.0282 µM); MIC50 [26]: > 32 µg/mL; MIC90 [26]: > 32 µg/mL
Cc1c(N)nc(SCC2=C(C(=O)[O-])N3C(=O)C(NC(=O)/C(=N\OC(C)(C)C(=O)O)c4csc(N)n4)C3SC2)[n+](C)c1N (stereo not shown) [Compound I-30] | 148 | 100 | 80 | 54 | 29000 | 17000 | 2 (≈ 3.14 µM) | 0.063 (≈ 0.0988 µM) | 0.063 (≈ 0.0988 µM) | 0.5 (≈ 0.784 µM) | 0.25 (≈ 0.392 µM) | 0.13 (≈ 0.204 µM) | ≤ 8 | 0.031 (≈ 0.0486 µM) | 2 (≈ 3.14 µM) | 0.13 (≈ 0.204 µM) | 4 (≈ 6.27 µM) | 4 (≈ 6.27 µM) | 2 (≈ 3.14 µM) | 0.063 (≈ 0.0988 µM) | concentration at 2.5 h ([1]; 150 min): 1300 ng/mL; MIC90 (Pseudomonas aeruginosa; 54 clinical isolates, broth microdilution test, read-out: MIC 90%): 4 µg/mL (≈ 6.27 µM); MIC [15]: 128 µg/mL (≈ 201 µM); MIC [16]: 2 µg/mL (≈ 3.14 µM); MIC [17]: 2 µg/mL (≈ 3.14 µM); MIC [18]: 0.063 µg/mL (≈ 0.0988 µM); MIC [19]: 2 µg/mL (≈ 3.14 µM); MIC [20]: 0.063 µg/mL (≈ 0.0988 µM); MIC [21]: ≤ 8 ng/mL; MIC [22]: 2 µg/mL (≈ 3.14 µM); MIC [23]: 0.031 µg/mL (≈ 0.0486 µM); MIC [24]: 0.063 µg/mL (≈ 0.0988 µM); MIC [25]: 0.5 µg/mL (≈ 0.784 µM); MIC50 [26]: > 128 µg/mL; MIC90 [26]: > 128 µg/mL
CCC[n+]1c(N)cc(N)nc1SCC1=C(C(=O)[O-])N2C(=O)C(NC(=O)/C(=N\OC(C)C(=O)O)c3csc(N)n3)C2SC1 (stereo not shown) [Compound I-45] | 147 | 84 | 67 | 52 | 29000 | 16000 | 4 (≈ 6.27 µM) | 0.016 (≈ 0.0251 µM) | 0.063 (≈ 0.0988 µM) | 0.5 (≈ 0.784 µM) | 0.25 (≈ 0.392 µM) | 0.063 (≈ 0.0988 µM) | ≤ 8 | 0.063 (≈ 0.0988 µM) | 4 (≈ 6.27 µM) | 0.13 (≈ 0.204 µM) | 2 (≈ 3.14 µM) | 8 (≈ 12.5 µM) | 2 (≈ 3.14 µM) | 0.063 (≈ 0.0988 µM) | MIC90 (Pseudomonas aeruginosa): 16 µg/mL (≈ 25.1 µM); MIC [15]: 64 µg/mL (≈ 100 µM); MIC [16]: 1 µg/mL (≈ 1.57 µM); MIC [17]: 1 µg/mL (≈ 1.57 µM); MIC [18]: 0.063 µg/mL (≈ 0.0988 µM); MIC [19]: 2 µg/mL (≈ 3.14 µM); MIC [20]: 0.063 µg/mL (≈ 0.0988 µM); MIC [21]: ≤ 8 ng/mL; MIC [22]: 1 µg/mL (≈ 1.57 µM); MIC [23]: 0.031 µg/mL (≈ 0.0486 µM); MIC [24]: 0.063 µg/mL (≈ 0.0988 µM); MIC [25]: 0.5 µg/mL (≈ 0.784 µM); MIC50 [26]: > 128 µg/mL; MIC90 [26]: > 128 µg/mL
